This passage reports IC50 results from patent US9902728B2, “Pyrrolo and pyrazolopyrimidines as ubiquitin-specific protease 7 inhibitors” (Forma Therapeutics, Inc., priority 2014, dated 2018).

Each structure is given as a SMILES string. Some results are limits rather than exact numbers.

T1 sequence (Q93009 208-1102): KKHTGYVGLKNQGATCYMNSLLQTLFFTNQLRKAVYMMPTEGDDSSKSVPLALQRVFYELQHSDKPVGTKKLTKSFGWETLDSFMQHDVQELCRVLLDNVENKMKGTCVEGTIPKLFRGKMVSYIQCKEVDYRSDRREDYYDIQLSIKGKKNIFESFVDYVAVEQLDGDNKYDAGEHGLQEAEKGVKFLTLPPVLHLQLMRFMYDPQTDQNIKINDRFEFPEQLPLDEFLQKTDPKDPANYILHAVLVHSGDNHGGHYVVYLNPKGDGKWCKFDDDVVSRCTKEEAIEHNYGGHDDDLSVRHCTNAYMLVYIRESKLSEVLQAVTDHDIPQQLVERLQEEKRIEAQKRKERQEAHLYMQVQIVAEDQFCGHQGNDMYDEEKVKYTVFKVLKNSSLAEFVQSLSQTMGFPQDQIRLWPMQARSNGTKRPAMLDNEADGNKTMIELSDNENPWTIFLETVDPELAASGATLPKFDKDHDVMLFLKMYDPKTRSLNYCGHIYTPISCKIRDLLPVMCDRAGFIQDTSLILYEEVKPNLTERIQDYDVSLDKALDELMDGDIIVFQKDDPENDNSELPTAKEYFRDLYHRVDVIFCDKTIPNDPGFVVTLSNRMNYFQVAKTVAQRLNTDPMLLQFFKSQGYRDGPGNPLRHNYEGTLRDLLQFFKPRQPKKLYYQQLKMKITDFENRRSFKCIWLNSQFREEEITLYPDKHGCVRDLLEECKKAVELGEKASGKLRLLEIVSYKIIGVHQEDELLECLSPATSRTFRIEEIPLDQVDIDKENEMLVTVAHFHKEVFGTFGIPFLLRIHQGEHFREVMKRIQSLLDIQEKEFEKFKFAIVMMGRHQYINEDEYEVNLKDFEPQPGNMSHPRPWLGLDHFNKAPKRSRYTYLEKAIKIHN

The first test addresses T1, USP7 (Homo sapiens, UniProt Q93009).
T1 construct: USP7, construct USP7 (208-1102) 6*His, Viva Biotech; 6xHis (C); purchased Viva Biotech
The test is described as follows: USP7 Assay A (Ubitquin-Rhodamine 110 Assay). It counts as biochemical. Particulars: USP7 activity in USP7 assay A and B (table does not say which assay per compound); read-out: USP7_IC50. The method, then:
Each assay was performed in a final volume of 15 μL in assay buffer containing 20 mM Tris-HCl (pH 8.0, (1M Tris-HCl, pH 8.0 solution; Corning 46-031-CM)), 1 mM GSH (L-Glutathione reduced; Sigma #G4251), 0.03% BGG ([…], Sigma, #G7516-25G), and 0.01% Triton X-100 (Sigma, #T9284-10L). […] 5 μL of 2× enzyme was added to assay plates (pre-stamped with compound) preincubated with USP7 for 30 minutes and then 5 μL of 2×Ub-Rh110 was added to assay plates. […] Fluorescence was read on the Envision (Excitation at 485 nm and Emission at 535 nm; Perkin Elmer) or on the PheraSTAR (Excitation at 485 nm and Emission at 535 nm; BMG Labtech).
Data from USP7 Assays A and B were reported as percent inhibition (inh) compared with control wells based on the following equation: % inh=1−((FLU−AveLow)/(AveHigh−AveLow)) where FLU=measured Fluorescence (See Tables 6-10). AveLow=average Fluorescence of no enzyme control (n=16). AveHigh=average Fluorescence of DMSO control (n=16). […] Data is fitted using the Levenburg Marquardt algorithm.
As for `Cc1cnn([C@@H](CC(=O)N2CCC(O)(Cn3cnc4c(cnn4-c4ccc(F)cc4)c3=O)CC2)C(F)F)c1` (single isomer, unassigned) [Compound I-736], the IC50 is over 10000 nM.
In the case of `CN1CCN(c2ccc(-n3ncc4c(=O)n(CC5(O)CCN(C(=O)C[C@@H](C(F)F)n6cccn6)CC5)cnc43)cc2)CC1` (single isomer, unassigned) [Compound I-827], the IC50 was in the range of 1000 to 10000 nM.
Still for that read-out and setting: to `Cn1ccc2c(=O)n(CC3(O)CCN(C(=O)CC(C(F)F)n4ccc(F)n4)CC3)cnc21` (single isomer, unassigned) [Compound I-1695] belongs under 200 nM; to `Cn1ccc2c(=O)n(CC3(O)CCN(C(=O)CC(C(F)F)n4ccc(F)n4)CC3)cnc21` (single isomer, unassigned) [Compound I-1696], over 10000 nM.
Still for that read-out and setting: next, `Cn1ncc2c(=O)n(CC3(O)CCN(C(=O)CC(C(F)F)n4ccc(F)n4)CC3)cnc21` (single isomer, unassigned) [Compound I-1697]: under 200 nM; `Cn1ncc2c(=O)n(CC3(O)CCN(C(=O)CC(C(F)F)n4ccc(F)n4)CC3)cnc21` (single isomer, unassigned) [Compound I-1698]: over 10000 nM.
Take `O=C(C1CCC(Nc2cccnc2F)CC1)N1CCC(O)(Cn2cnc3c(cnn3-c3ccccc3)c2=O)CC1` (single isomer, unassigned) [Compounds I-1039]: the IC50 was 200 to 1000 nM.
Still for that read-out and setting: next, `COC1CCC(Oc2ccc(-n3ncc4c(=O)n(CC5(O)CCN(C(=O)C6(C)CC6)CC5)cnc43)cc2)CC1` (single isomer, unassigned) [Compounds I-1116]: 200 to 1000 nM.

Still in this test, the particulars now being: USP7 assay A and B (table does not say which assay per compound); Ubiquitin-Rhodamine 110 substrate; read-out: USP7_IC50.
For the compound `CC(CC(=O)N1CCC(O)(Cn2cnc3c(cnn3C)c2=O)CC1)c1ccccc1` (stereo not shown) [Compound I-1, 5-((4-Hydroxy-1-(3-phenylbutanoyl)piperidin-4-yl)methyl)-1-methyl-1,5-dihydro-4H-pyrazolo[3,4-d]pyrimidin-4-one], the IC50 was 200 to 1000 nM.
Same read-out and setting: next, `Cn1ncc2c(=O)n(CC3(O)CCN(C(=O)c4ccc(-c5ccc(C(=O)N6CCCCC6)cc5)cc4Cl)CC3)cnc21` [Compound I-55]: 1000 to 10000 nM.

The test is the same for the next values; noted with them: USP7 assay A and B (table does not say which assay per compound); read-out: USP7_IC50.
`C[C@@H](CC(=O)N1CCC(O)(Cn2cnc3c(cnn3-c3ccc(F)cc3)c2=O)CC1)n1cc2c(n1)CCC2` (single isomer, unassigned) [Compound I-519]: the IC50 was over 10000 nM.
On the same count and under the same terms, to `C[C@](O)(c1ccc(C(=O)N2CCC(O)(Cn3cnc4c(cnn4-c4ccc(F)cc4)c3=O)CC2)cc1)C(F)(F)F` (single isomer, unassigned) [Compound I-528] belongs 1000 to 10000 nM; to `COc1ccc(C(=O)N2CCC(O)(C(C)n3cnc4c(cnn4-c4ccc(F)cc4)c3=O)CC2)cc1` (single isomer, unassigned) [Compound I-615], 200 to 1000 nM; to `COC1(C)CCN(c2cc(-n3ncc4c(=O)n(CC5(O)CCN(C(=O)C6CC6)CC5)cnc43)ccc2F)C1` (single isomer, unassigned) [Compound I-971], 200 to 1000 nM.
As for `C[S+]([O-])c1ccc(-n2ncc3c(=O)n(CC4(O)CCN(C(=O)c5ccc(F)cc5)CC4)cnc32)cc1` (single isomer, unassigned) [Compound I-995, 5-((1-(4-fluorobenzoyl)-4-hydroxypiperidin-4-yl)methyl)-1-(4-(methylsulfinyl)phenyl)-1H-pyrazolo[3,4-d]pyrimidin-4(5H)-one], the IC50 was in the range of 1000 to 10000 nM.
`C[S+]([O-])c1ccc(-n2ncc3c(=O)n(CC4(O)CCN(C(=O)c5ccc(F)cc5)CC4)cnc32)cc1` (single isomer, unassigned) [Compound I-996, 5-((1-(4-fluorobenzoyl)-4-hydroxypiperidin-4-yl)methyl)-1-(4-(methylsulfinyl)phenyl)-1H-pyrazolo[3,4-d]pyrimidin-4(5H)-one]: the IC50 lay in the range of 1000 to 10000 nM.
For `CS(=N)(=O)c1ccc(-n2ncc3c(=O)n(CC4(O)CCN(C(=O)c5ccc(F)cc5)CC4)cnc32)cc1` (single isomer, unassigned) [Compound I-997, 5-((1-(4-fluorobenzoyl)-4-hydroxypiperidin-4-yl)methyl)-1-(4-(S-methylsulfonimidoyl)phenyl)-1,5-dihydro-4H-pyrazolo[3,4-d]pyrimidin-4-one], the IC50 was 1000 to 10000 nM.
The same measure, in the same setting: to `CS(=N)(=O)c1ccc(-n2ncc3c(=O)n(CC4(O)CCN(C(=O)c5ccc(F)cc5)CC4)cnc32)cc1` (single isomer, unassigned) [Compound I-998, 5-((1-(4-fluorobenzoyl)-4-hydroxypiperidin-4-yl)methyl)-1-(4-(S-methylsulfonimidoyl)phenyl)-1,5-dihydro-4H-pyrazolo[3,4-d]pyrimidin-4-one] belongs 1000 to 10000 nM; to `CN(C(=O)N1CCC(O)(Cn2cnc3c(cnn3C)c2=O)CC1)c1ccc(-c2ccccc2)cc1` [Compound I-4, N-([1,1′-biphenyl]-4-yl)-4-hydroxy-N-methyl-4-((1-methyl-4-oxo-1,4-dihydro-5H-pyrazolo[3,4-d]pyrimidin-5-yl)methyl)piperidine-1-carboxamide], over 10000 nM; to `O=C(O)Cc1cccc(-n2ncc3c(=O)n(CC4(O)CCN(C(=O)c5ccccc5)CC4)cnc32)c1` [Compound I-11, 2-(3-(5-((1-Benzoyl-4-hydroxypiperidin-4-yl)methyl)-4-oxo-4,5-dihydro-1H-pyrazolo[3,4-d]pyrimidin-1-yl)phenyl)acetic acid], over 10000 nM.
As to `Cn1ncc2c(=O)n(CC3(O)CCN(C(=O)c4ccc(Nc5ccccc5)cc4)CC3)cnc21` [Compound I-13], the IC50 was in the range of 1000 to 10000 nM.
Same read-out and setting: next, `O=C(c1ccccc1)N1CCC(O)(Cn2cnc3c(cnn3-c3ccccc3O)c2=O)CC1` [Compound I-18, 5-((1-Benzoyl-4-hydroxypiperidin-4-yl)methyl)-1-(2-hydroxyphenyl)-1,5-dihydro-4H-pyrazolo[3,4-d]pyrimidin-4-one]: over 10000 nM; `O=C(c1ccccc1)N1CCC(O)(Cn2cnc3c(cnn3-c3cccc(O)c3)c2=O)CC1` [Compound I-19]: 1000 to 10000 nM.
The same measure, in the same setting: to `NCc1cccc(C(=O)N2CCC(O)(Cn3cnc4c(cnn4-c4ccccc4)c3=O)CC2)c1` [Compound I-20] belongs 1000 to 10000 nM.
Regarding `O=C(c1ccc(NC2CC2)cc1)N1CCC(O)(Cn2cnc3c(cnn3-c3ccccc3)c2=O)CC1` [Compound I-23, 5-((1-(4-(Cyclopropylamino)benzoyl)-4-hydroxypiperidin-4-yl)methyl)-1-phenyl-1,5-dihydro-4H-pyrazolo[3,4-d]pyrimidin-4-one], the IC50 lay within 200 to 1000 nM.
Same read-out and setting: next, `CC(C)(C)c1ccc(-n2ncc3c(=O)n(CC4(O)CCN(C(=O)C5CC5)CC4)cnc32)cc1` [Compound I-25]: 200 to 1000 nM; `Cc1cc(C)c(-n2ncc3c(=O)n(CC4(O)CCN(C(=O)C5CC5)CC4)cnc32)c(C)c1` [Compound I-26]: over 10000 nM.
Take `CC(C)c1ccc(-n2ncc3c(=O)n(CC4(O)CCN(C(=O)C5CC5)CC4)cnc32)cc1` [Compound I-27]: the IC50 lay within 1000 to 10000 nM.
On the same count and under the same terms, to `O=C(C1CC1)N1CCC(O)(Cn2cnc3c(cnn3-c3ccc(C(F)(F)F)cc3)c2=O)CC1` [Compound I-28] belongs 1000 to 10000 nM.
Still for that read-out and setting: to `O=C(C1CC1)N1CCC(O)(Cn2cnc3c(cnn3C3CCCCC3)c2=O)CC1` [Compound I-29] belongs over 10000 nM; to `O=C(C1CC1)N1CCC(O)(Cn2cnc3c(cnn3-c3cccnc3)c2=O)CC1` [Compound I-30], 1000 to 10000 nM.
Still for that read-out and setting: to `CS(=O)(=O)c1ccc(-n2ncc3c(=O)n(CC4(O)CCN(C(=O)C5CC5)CC4)cnc32)cc1` [Compound I-31] belongs 1000 to 10000 nM; to `O=C(C1CC1)N1CCC(O)(Cn2cnc3c(cnn3-c3ccc(Cl)c(Cl)c3)c2=O)CC1` [Compound I-33], 1000 to 10000 nM; to `O=C(C1CC1)N1CCC(O)(Cn2cnc3c(cnn3-c3cccc(C(F)(F)F)c3)c2=O)CC1` [Compound I-34], over 10000 nM.
In the case of `O=C(C1CC1)N1CCC(O)(Cn2cnc3c(cnn3-c3ccc(Cl)cc3)c2=O)CC1` [Compound I-35], the IC50 lay in the range of 1000 to 10000 nM.
On the same count and under the same terms, to `O=C(C1CC1)N1CCC(O)(Cn2cnc3c(cnn3-c3ccc(F)cc3)c2=O)CC1` [Compound I-38] belongs 1000 to 10000 nM; to `C[C@@H](n1cnc2c(cnn2-c2ccc(F)cc2)c1=O)C1(O)CCN(C(=O)c2ccc(F)cc2)CC1` [Compound I-44], 1000 to 10000 nM.
In the case of `C=CS(=O)(=O)Nc1ccccc1-c1ccc(C(=O)N2CCC(O)(Cn3cnc4c(cnn4C)c3=O)CC2)cc1` [Compound I-45, N-(4′-(4-Hydroxy-4-((1-methyl-4-oxo-1,4-dihydro-5H-pyrazolo[3,4-d]pyrimidin-5-yl)methyl)piperidine-1-carbonyl)-[1,1′-biphenyl]-2-yl)ethenesulfonamide], the IC50 fell in the range of 200 to 1000 nM.
For `O=C(c1ccccc1)N1CCC(O)(Cn2cnc3c(ccn3-c3ccc(F)cc3)c2=O)CC1` [Compound I-48], the IC50 was 1000 to 10000 nM.
As for `NCc1cccc(-n2ccc3c(=O)n(CC4(O)CCN(C(=O)c5ccc(F)cc5)CC4)cnc32)c1` [Compound I-51, 7-(3-(Aminomethyl)phenyl)-3-((1-(4-fluorobenzoyl)-4-hydroxypiperidin-4-yl)methyl)-3,7-dihydro-4H-pyrrolo[2,3-d]pyrimidin-4-one], the IC50 lay in the range of 1000 to 10000 nM.
